In patent US12582680B2, “Pharmaceutical composition for prevention, amelioration, or treatment of skin disease” (priority 2019, dated 2026):

Key:
SPF-Tmem79-KO mouse = assay: Antibiotic in drinking water, dermatitis clinical scores of SPF-Tmem79-KO mouse; type: in vivo; conditions: 200 mg/mL in drinking water; FIG. 9B
Protocol: For the SPF-Tmem79-KO mouse and the control (SPF-WT mice), the clinical scores were evaluated on a 4-point scale of 0: normal, 1: mild, 2: moderate, and 3: severe for each of the four items of erythema, edema, erosion, and dryness. The degree of inflammation in the skin was evaluated by using the total value of the clinical scores of the four items. In the drawing, the SPF-Tmem79-KO mouse is described as “SPF Tmem79^−/−”, and the SPF-WT mouse is described as “SPF WT”. It can be understood that the SPF-Tmem79-KO mouse developed bimodal dermatitis.
Ampicillin (manufactured by NACALAI TESQUE, INC.) or fusidic acid (manufactured by Sigma-Aldrich Co. LLC.) was suspended in drinking water so as to be 200 mg/mL and the resultant drinking water was administered to the SPF-Tmem79-KO mouse, and the clinical scores were obtained with time.

S. aureus = assay: Sensitivity to antibiotics, culture of skin bacteria in media containing antibiotics, number of colonies; type: cell-based; conditions: FIGS. 9C and 9D
Description: (§1) FIG. 9A is a schematic diagram showing an experimental flow. FIG. 9B is a graph that indicates changes over time of clinical scores in the skins of SPF-Tmem79^−/− mice inoculated with ampicillin (Amp) or fusidic acid (FA) being an antibiotic (ABx).
(§2) Further, the sensitivity of S. aureus and S. cohnii to both antibiotics was verified by using the antibiotics. The proliferation of S. aureus was suppressed by any one of the ampicillin and the fusidic acid (FIGS. 9C and 9D).

S. cohnii = assay: as above; type: cell-based; conditions: FIGS. 9C and 9E
Description: as §1, §2

[1] = test system: GF-WT mouse applied with imiquimod; assay: Imiquimod-initiated inflammation in GF-WT mouse, squalene and mifepristone; type: in vivo
Protocol: Imiquimod (Beselna cream, manufactured by MOCHIDA PHARMACEUTICAL CO., LTD.) was applied onto the ears of a GF-WT mouse at a dose of 50 mg per mouse once a day for 5 consecutive days.
Further, in another group of mice, mifepristone (M8046-1G, manufactured by Sigma-Aldrich Co. LLC) was administered to the mice freely at 210 μg/mL in drinking water during the experimental period.

[2] = mifepristone 210 μg/mL in drinking water

| SMILES | degree of dermatitis (clinical scores) (SPF-Tmem79-KO mouse) | proliferation of S. aureus (S. aureus) | proliferation of S. cohnii (S. cohnii) | suppression of imiquimod-initiated inflammation by S. cohnii, effect of mifepristone [1, 2] | suppression of imiquimod-initiated inflammation by squalene, effect of mifepristone [1, 2] | imiquimod-initiated inflammation (ear swelling and lymph node swelling) ([1]; S. cohnii 2.0×10^7 CFU first 3 days, squalene 200 μl per mouse for 5 days, FIGS. 22B and 22C) |
| --- | --- | --- | --- | --- | --- | --- |
| CC1(C)S[C@@H]2[C@H](NC(=O)[C@H](N)c3ccccc3)C(=O)N2[C@H]1C(=O)O [ampicillin] | alleviation of the dermatitis was not observed | suppressed | significantly suppressed | – | – | – |
| CC(=O)O[C@H]1C[C@@]2(C)[C@@H](C[C@@H](O)[C@H]3[C@@]4(C)CC[C@@H](O)[C@@H](C)[C@@H]4CC[C@@]32C)/C1=C(\CCC=C(C)C)C(=O)O [fusidic acid] | alleviated | suppressed | not suppressed | – | – | – |
| CC#C[C@]1(O)CC[C@H]2[C@@H]3CCC4=CC(=O)CCC4=C3[C@@H](c3ccc(N(C)C)cc3)C[C@@]21C [mifepristone] | – | – | – | inhibited | inhibition of suppressive effect | – |
| CC(C)=CCC/C(C)=C/CC/C(C)=C/CC/C=C(\C)CC/C=C(\C)CCC=C(C)C [squalene] | – | – | – | – | – | almost the same as that of S. cohnii |
